Molecular target: T1, GlyT1 (Homo sapiens, UniProt P48067)
T1 construct: expressed in transfected cells
T1 sequence (P48067 1-706): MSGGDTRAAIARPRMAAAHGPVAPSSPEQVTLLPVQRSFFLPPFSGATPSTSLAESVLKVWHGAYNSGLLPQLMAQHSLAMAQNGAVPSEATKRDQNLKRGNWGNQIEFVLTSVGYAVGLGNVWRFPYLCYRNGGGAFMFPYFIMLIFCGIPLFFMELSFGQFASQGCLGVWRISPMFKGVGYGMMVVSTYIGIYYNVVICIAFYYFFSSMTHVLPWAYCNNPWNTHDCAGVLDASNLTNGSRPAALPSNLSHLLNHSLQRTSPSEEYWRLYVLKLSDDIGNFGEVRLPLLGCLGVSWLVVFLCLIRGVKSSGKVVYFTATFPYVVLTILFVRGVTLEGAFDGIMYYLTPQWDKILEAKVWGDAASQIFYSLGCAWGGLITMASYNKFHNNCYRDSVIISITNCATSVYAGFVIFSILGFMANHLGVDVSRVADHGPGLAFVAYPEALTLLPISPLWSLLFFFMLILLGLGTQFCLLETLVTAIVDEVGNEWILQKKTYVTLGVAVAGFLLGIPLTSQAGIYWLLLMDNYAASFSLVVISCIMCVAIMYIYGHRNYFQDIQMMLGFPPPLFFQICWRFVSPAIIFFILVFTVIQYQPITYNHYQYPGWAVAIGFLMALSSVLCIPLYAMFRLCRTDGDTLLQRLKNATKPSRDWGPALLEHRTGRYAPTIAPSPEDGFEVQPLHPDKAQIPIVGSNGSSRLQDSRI
Test: Glycine Transporter 1 (GlyT1) uptake assay, scintillation proximity assay of [14C]-glycine uptake
Format: cell-based
Conditions: [14C]-glycine uptake; read-out: GlyT1 (pIC50) (converted)
Procedure, shortened: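 IC50 values were derived by four-parameter logistic fitting of counts. The 2× compound solutions were made by 1:100 dilution into HBSS of DMSO serial dilutions.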

Structure (SMILES): COc1c(S(C)(=O)=O)ccc(O[C@@H](C)C(F)(F)F)c1C(=O)N1CC(Oc2cccc(F)c2)C1 [Example 207, 3-(3-Fluorophenoxy)-1-(3-methanesulfonyl-2-methoxy-6-{[(2S)-1,1,1-trifluoropropan-2-yl]oxy}benzoyl)azetidine]
- IC50: < 100 nM

Structure (SMILES): CC(Oc1ccc(C#N)c(Cl)c1C(=O)N1CC(c2ccccc2C(F)(F)F)C1)C(F)(F)F (stereo not shown) [Example 84, 2-Chloro-3-({3-[2-(trifluoromethyl)phenyl]azetidin-1-yl}carbonyl)-4-[(1,1,1-trifluoropropan-2-yl)oxy]benzonitrile]
- IC50: 100 to 1000 nM

Structure (SMILES): COc1c(C#N)ccc(O[C@@H](C)C(F)(F)F)c1C(=O)N1CC(Nc2ncc(C(F)(F)F)cc2F)C1 [Example 14, 3-[(3-{[3-Fluoro-5-(trifluoromethyl)pyridin-2-yl]amino}azetidin-1-yl)carbonyl]-2-methoxy-4-{[(2S)-1,1,1-trifluoropropan-2-yl]oxy}benzonitrile]
- IC50: 100 to 1000 nM

Structure (SMILES): COc1cc(C2CN(C(=O)c3c(O[C@@H](C)C(F)(F)F)ccc(C#N)c3OC)C2)ccc1C#N [Example 174, 3-{[3-(4-Cyano-3-methoxyphenyl)azetidin-1-yl]carbonyl}-2-methoxy-4-{[(2S)-1,1,1-trifluoropropan-2-yl]oxy}benzonitrile]
- IC50: < 100 nM

Structure (SMILES): CC(Oc1ccc(C#N)c(Cl)c1C(=O)N1CC(c2cccnc2)C1)C(F)(F)F (stereo not shown) [Example 71, 2-Chloro-3-{[3-(pyridin-3-yl)azetidin-1-yl]carbonyl}-4-[(1,1,1-trifluoropropan-2-yl)oxy]benzonitrile]
- IC50: 100 to 1000 nM

Structure (SMILES): COc1c(S(C)(=O)=O)ccc(O[C@@H](C)C(F)(F)F)c1C(=O)N1CC(c2ccccc2C(F)(F)F)C1 [Example 199, 1-(3-Methanesulfonyl-2-methoxy-6-{[(2S)-1,1,1-trifluoropropan-2-yl]oxy}benzoyl)-3-[2-(trifluoromethyl)phenyl]azetidine]
- IC50: < 100 nM

Structure (SMILES): COc1c(S(C)(=O)=O)ccc(O[C@@H](C)C(F)(F)F)c1C(=O)N1CC(c2ccc(C#N)cc2Cl)C1 [Example 236, 3-Chloro-4-[1-(3-methanesulfonyl-2-methoxy-6-{[(2S)-1,1,1-trifluoropropan-2-yl]oxy}benzoyl)azetidin-3-yl]benzonitrile]
- IC50: < 100 nM

Structure (SMILES): COc1c(C#N)ccc(C2(F)CCCC2)c1C(=O)N1CC(c2ccc(C(F)(F)F)cc2)C1 [Example 197, 4-(1-Fluorocyclopentyl)-2-methoxy-3-{3-[4-(trifluoromethyl)phenyl]azetidine-1-carbonyl}benzonitrile]
- IC50: < 100 nM

Structure (SMILES): COc1c(C#N)ccc(C2CC(F)(F)C2)c1C(=O)N1CC(c2ncc(C(F)(F)F)cc2F)C1 [Example 153, 4-(3,3-Difluorocyclobutyl)-3-{3-[3-fluoro-5-(trifluoromethyl)pyridin-2-yl]azetidine-1-carbonyl}-2-methoxybenzonitrile]
- IC50: < 100 nM

Structure (SMILES): N#Cc1ccc(OCC(F)(F)F)c(C(=O)N2CC(c3ccc(C(F)(F)F)cc3)C2)c1Cl [Example 105, 2-Chloro-4-(2,2,2-trifluoroethoxy)-3-({3-[4-(trifluoromethyl)phenyl]azetidin-1-yl}carbonyl)benzonitrile]
- IC50: 100 to 1000 nM

Structure (SMILES): COc1c(C#N)ccc(C2(F)CCOCC2)c1C(=O)N1CC(c2ccc(Cl)cc2)C1 [Example 20, 3-{[3-(4-Chlorophenyl)azetidin-1-yl]carbonyl}-4-(4-fluorooxan-4-yl)-2-methoxybenzonitrile]
- IC50: < 100 nM

Structure (SMILES): COc1c(S(C)(=O)=O)ccc(O[C@@H](C)C(F)(F)F)c1C(=O)N1CC(Oc2cc(F)ccc2F)C1 [Example 205, 3-(2,5-Difluorophenoxy)-1-(3-methanesulfonyl-2-methoxy-6-{[(2S)-1,1,1-trifluoropropan-2-yl]oxy}benzoyl)azetidine]
- IC50: < 100 nM

Structure (SMILES): COc1c(S(C)(=O)=O)ccc(O[C@@H](C)C(F)(F)F)c1C(=O)N1CC(c2ccc(C(F)F)c(F)c2)C1 [Example 142, 3-[4-(Difluoromethyl)-3-fluorophenyl]-1-(3-methanesulfonyl-2-methoxy-6-{[(2S)-1,1,1-trifluoropropan-2-yl]oxy}benzoyl)azetidine]
- IC50: 1000 to 10000 nM

From patent publication US10040759B2, “Substituted azetidinyl compounds as GlyT1 inhibitors” (DART NEUROSCIENCE (CAYMAN) LTD., priority 2014, dated 2018)
